Results as given in ChEMBL document CHEMBL1132498, “Increased antiviral activity of cyclic urea HIV protease inhibitors by modifying the P1/P1' substituents” (Bioorg Med Chem Lett, 1999).

Columns and labels:
[1] = target: Human immunodeficiency virus type 1 protease (Human immunodeficiency virus 1, UniProt Q72874); assay: Binding affinity for HIV protease
[2] = test system: Human immunodeficiency virus 1; assay: Inhibitory activity was determined by measuring accumulation of viral RNA transcript after infection of cells with HIV-1; assay type: functional
[3] = Translatory activity was evaluated as ratio of Ki and IC90 *10e-5; assay type: functional

Compound `Nc1n[nH]c2ccc(CN3C(=O)N(Cc4ccc5[nH]nc(N)c5c4)[C@H](Cc4ccccc4)[C@H](O)[C@@H](O)[C@H]3Cc3ccccc3)cc12` has a Ki [1] of under 0.01 nM.
`CC(C)(C)c1ccc(C[C@@H]2[C@H](O)[C@@H](O)[C@@H](Cc3ccc(C(C)(C)C)cc3)N(Cc3ccc4[nH]nc(N)c4c3)C(=O)N2Cc2ccc3[nH]nc(N)c3c2)cc1` showed an IC90 [2] of 100 nM, a Ki [1] of 0.19 nM and a Translation [3] of 190.
`Nc1[nH]nc2ccc(CN3C(=O)N(Cc4ccc5n[nH]c(N)c5c4)[C@H](Cc4ccccc4)[C@H](O)[C@@H](O)[C@H]3Cc3ccccc3)cc12` gave an IC90 [2] of 2760 nM and a Translation [3] of under 0.36.
Compound `CCc1ccc(C[C@@H]2[C@H](O)[C@@H](O)[C@@H](Cc3ccc(CC)cc3)N(Cc3ccc4[nH]nc(N)c4c3)C(=O)N2Cc2ccc3[nH]nc(N)c3c2)cc1` has an IC90 [2] of 300 nM, a Ki [1] of 0.068 nM and a Translation [3] of 23.
With `Cc1cccc(C[C@@H]2[C@H](O)[C@@H](O)[C@@H](Cc3cccc(C)c3)N(Cc3ccc4[nH]nc(N)c4c3)C(=O)N2Cc2ccc3[nH]nc(N)c3c2)c1` the IC90 [2] was 740 nM, the Ki [1] was 0.011 nM and the Translation [3] was 1.5.
For `Cc1ccc(C[C@@H]2[C@H](O)[C@@H](O)[C@@H](Cc3ccc(C)cc3)N(Cc3ccc4[nH]nc(N)c4c3)C(=O)N2Cc2ccc3[nH]nc(N)c3c2)cc1`, the IC90 [2] was 780 nM, the Ki [1] was 0.061 nM and the Translation [3] was 8.
Compound `CC(C)(C)c1cccc(C[C@@H]2[C@H](O)[C@@H](O)[C@@H](Cc3cccc(C(C)(C)C)c3)N(Cc3ccc4[nH]nc(N)c4c3)C(=O)N2Cc2ccc3[nH]nc(N)c3c2)c1` has an IC90 [2] of 390 nM, a Ki [1] of 0.21 nM and a Translation [3] of 54.
In the case of `Cc1cc(C)cc(C[C@@H]2[C@H](O)[C@@H](O)[C@@H](Cc3cc(C)cc(C)c3)N(Cc3ccc4[nH]nc(N)c4c3)C(=O)N2Cc2ccc3[nH]nc(N)c3c2)c1`, the IC90 [2] is reported as 540 nM, the Ki [1] is reported as 0.067 nM and the Translation [3] is reported as 12.
Work on `CCCc1ccc(C[C@@H]2[C@H](O)[C@@H](O)[C@@H](Cc3ccc(CCC)cc3)N(Cc3ccc4[nH]nc(N)c4c3)C(=O)N2Cc2ccc3[nH]nc(N)c3c2)cc1` yielded an IC90 [2] of 290 nM, a Ki [1] of 0.068 nM and a Translation [3] of 23.
Compound `CC(C)c1ccc(C[C@@H]2[C@H](O)[C@@H](O)[C@@H](Cc3ccc(C(C)C)cc3)N(Cc3ccc4[nH]nc(N)c4c3)C(=O)N2Cc2ccc3[nH]nc(N)c3c2)cc1` has an IC90 [2] of 410 nM, a Ki [1] of 0.19 nM and a Translation [3] of 46.
`Cc1ccc(C)c(C[C@@H]2[C@H](O)[C@@H](O)[C@@H](Cc3cc(C)ccc3C)N(Cc3ccc4[nH]nc(N)c4c3)C(=O)N2Cc2ccc3[nH]nc(N)c3c2)c1` gave an IC90 [2] of 300 nM, a Ki [1] of 0.034 nM and a Translation [3] of 11.
For `CCCCc1ccc(C[C@@H]2[C@H](O)[C@@H](O)[C@@H](Cc3ccc(CCCC)cc3)N(Cc3ccc4[nH]nc(N)c4c3)C(=O)N2Cc2ccc3[nH]nc(N)c3c2)cc1`, the IC90 [2] was 180 nM, the Ki [1] was 0.17 nM and the Translation [3] was 94.
